Literature values, collected in patent US8586580B2, “2,7-substituted thieno[3,2-d] pyrimidine compounds as protein kinase inhibitors” (Korea Institute of Science and Technology, priority 2009, dated 2013).

Tested on: PC-3, BT-474, LoVo, NCI-H460, U-87 MG and BxPC-3 human tumor xenografts
Settings: in vivo

CN(c1ncccc1CNc1nc(Nc2ccc3c(c2)CC(=O)N3)ncc1C(F)(F)F)S(C)(=O)=O [PF-562271]
toxicity: No special toxicity has been observed
